Reference: ChEMBL document CHEMBL3832761, “MMV Pathogen Box Bioactivity Data” (2017)

What was measured:
Plasmodium berghei [1] = assay: Antimalarial activity: Liver Stage Plasmodium berghei sporozoite Luciferase assay IC50 (uM); format: functional, organism-based
Plasmodium berghei [2] = assay: Antimalarial activity: Liver Stage Plasmodium berghei sporozoite Luciferase assay: inhibition at 10 uM (%); format: functional
HepG2 [3] = assay: HepG2 CC50 (uM) Cytotoxicity; format: functional; details: Homo sapiens
Plasmodium falciparum [4] = assay: Antimalarial activity: Asexual Blood Stage Plasmodium falciparum 3D7 IC50 (uM); format: functional, organism-based
Plasmodium falciparum [5] = assay: Antimalarial activity: Asexual Blood Stage Plasmodium falciparum Dd2 IC50 (uM); format: functional, organism-based
Plasmodium falciparum [6] = assay: Antimalarial activity: Gametocytes Plasmodium falciparum NF54 Gametocytes Stage V: inhibition at 10 uM (%); format: functional
HepG2 [7] = assay: Cytotoxicity data HepG2 CC20 (uM); format: functional
Trypanosoma brucei [8] = assay: AntiTrypanosoma brucei activity T. b. rhodesiense IC50 (uM); format: functional, organism-based
Leishmania infantum = assay: AntiLeishmania activity L. infantum (macrophages) IC50 (uM); format: functional, organism-based
Trypanosoma cruzi = assay: AntiTrypanosoma cruzi activity IC50 (uM); format: functional, organism-based
[9] = PMM CC50 (uM) Cytotoxicity; format: functional; details: Macrophage
MRC5 = assay: MRC5 CC50 (uM) Cytotoxicity; format: functional; details: Homo sapiens
Trypanosoma brucei [10] = assay: AntiTrypanosoma brucei activity T. b. brucei IC50 (uM); format: functional, organism-based

SMILES | IC50 (Plasmodium berghei [1]) | Inhibition (Plasmodium berghei [2]) | CC50 (HepG2 [3]) | IC50 (Plasmodium falciparum [4]) | IC50 (Plasmodium falciparum [5]) | Inhibition (Plasmodium falciparum [6]) | CC20 (HepG2 [7]) | IC50 (Trypanosoma brucei [8]) | IC50 (Leishmania infantum) | IC50 (Trypanosoma cruzi) | CC50 [9] | CC50 (MRC5) | IC50 (Trypanosoma brucei [10])
C[C@H](C(N)=O)N1CCCC[C@H]1c1ccc(OCc2cccc(F)c2)cc1 | 1.36 µM | 95% | > 10 µM | > 2 µM | > 2 µM | 0% | >80 µM |  |  |  |  |  | 
CCc1nn(C)c(C(=O)NCc2ccc(Oc3ccc(C)cc3)cc2)c1Cl [TOLFENPYRAD] |  | 94% |  |  |  |  |  | 20.4 µM | 45.6 µM | 5.35 µM | 48 µM | 56 µM | 33 µM
CNC(=O)c1nn(C)c2c1C(C)(C)Cc1cnc(Nc3ccc(N4CCN(C)CC4)cc3)nc1-2 [MILCICLIB] |  |  |  |  |  |  | <0.26 µM | < 0.13 µM | 0.85 µM | 1.05 µM | 1 µM | 1.1 µM | < 0.13 µM
c1csc(-c2cnc3sc(NCC4CCOCC4)nn23)c1 | > 10 µM | 58% | > 10 µM | 1.37 µM | 1.11 µM | 18% | 30 µM |  |  |  |  |  | 
N=C(N)Nc1ccc(-c2ccc(-c3ccc(N=C(N)N)c(Cl)c3)o2)cc1Cl |  |  |  |  |  |  | 13.5 µM | 0.2 µM | 10.2 µM | 0.66 µM | 16 µM | 15.4 µM | 0.6 µM
c1ccc(Oc2ccc(-c3cc(N4CCNCC4)[nH]n3)cc2)cc1 |  |  |  |  |  |  | 6.43 µM | 0.97 µM | 4.06 µM | 4.48 µM | 4 µM | 16 µM | 0.99 µM
c1cc(C2=NCCN2)cc(-c2cc(-c3ccc(C4=NCCN4)cc3)no2)c1 |  |  |  |  |  |  | 4.51 µM | 3 µM | > 32 µM | > 32 µM | > 32 µM | > 32 µM | 5.63 µM
Cc1nn(C)c(C)c1NS(=O)(=O)c1c(Cl)cc(-c2ccnc(N3CCNCC3)c2)cc1Cl |  |  |  |  |  |  | 0.05 µM | < 0.13 µM | 1.01 µM | 0.85 µM | 1 µM | 2 µM | < 0.13 µM
N=C(N)c1ccc(-c2cc(-c3ccccc3)on2)cc1 |  |  |  |  |  |  | 2.64 µM | 1.08 µM | 2.54 µM | 4.04 µM | 4 µM | 12.2 µM | 4.06 µM
COc1cc(C2=NCCN2)ccc1-c1cn(-c2cccc(C3=NCCN3)c2)nn1 |  |  |  |  |  |  | 22.9 µM | 3.72 µM | > 32 µM | 25 µM | > 32 µM | > 32 µM | > 32 µM
CC1=Nc2ccc(Cl)cc2C(O)(c2ccc(C)cc2)N1CCN1CCCCC1 (configuration not stated) |  |  |  |  |  |  | 10 µM | 0.43 µM | 4.06 µM | 4.04 µM | 4 µM | 16 µM | 0.98 µM
COc1ccc(C2=NCCN2)cc1-c1cn(-c2cccc(C3=NCCN3)c2)nn1 |  |  |  |  |  |  | >80 µM | 1.63 µM | > 32 µM | > 32 µM | > 32 µM | > 32 µM | > 32 µM
C[C@H](C(N)=O)N1CCCC[C@@H]1c1ccc(OCc2cccc(F)c2)cc1 | 1.77 µM | 99% | > 10 µM |  |  | 5% | 21.8 µM |  |  |  |  |  | 
CO[C@@H]1CN(c2ccc(C#CC3(O)CN4CCC3CC4)c(Cc3ccccc3)n2)C[C@H]1O (some centres not stated) |  |  |  |  |  |  | 38.4 µM | 4 µM | 17.3 µM | < 0.13 µM | > 32 µM | > 32 µM | 16.1 µM
CCCCN(CCCC)c1c(C#N)cc(S(=O)(=O)Nc2ccccc2)cc1C#N |  |  |  |  |  |  | 11.9 µM | 0.24 µM | 13.6 µM | 0.82 µM | 16 µM | 3.9 µM | 0.26 µM
CO/N=C(\C(=O)OC)c1ccccc1CO/N=C(\C)c1cccc(C(F)(F)F)c1 |  | 100% |  | 0.3 µM |  |  |  | 26.2 µM | > 64 µM | 1.94 µM | > 64 µM | > 64 µM | 33.6 µM
COc1cc(C2=NCCN2)cc2cc(-c3ccc(C4=NCCN4)cc3)oc12 |  |  |  |  |  |  | 14.3 µM | 0.78 µM | > 32 µM | 13.3 µM | > 32 µM | > 32 µM | 14.5 µM
N=C(N)Nc1ccc(-c2ccc(-c3ccc(NC(=N)N)cc3Cl)o2)c(Cl)c1 |  |  |  |  |  |  | 6.75 µM | 0.23 µM | 1.01 µM | 0.29 µM | 1 µM | 11.6 µM | 1.03 µM
c1ccc(Oc2ccc(-c3cc(C4CCOCC4)[nH]n3)cc2)cc1 |  |  |  |  |  |  | 10.8 µM | 3.77 µM | > 32 µM | 16.4 µM | > 32 µM | 22.8 µM | 7.58 µM
CC1=Nc2ccc(Cl)cc2C(c2ccccc2)N1CCNC(=O)CN(C)C (configuration not stated) |  |  |  |  |  |  | 16.4 µM | 3.11 µM | 10.1 µM | 17.1 µM | > 32 µM | 16 µM | 3.78 µM
CC(C)(C)C(O)C(Oc1ccc(-c2ccccc2)cc1)n1cncn1 (configuration not stated) [BITERTANOL] |  | 46% |  |  |  |  |  | 28 µM | > 64 µM | 0.06 µM | > 64 µM | > 64 µM | 32.9 µM
CCc1ccccc1-n1c(C)cn2c3c(=O)n(C(C(=O)OC)C(C)C)c(=O)n(C)c3nc12 (configuration not stated) |  |  |  |  |  |  | 44.3 µM | < 0.13 µM | > 32 µM | 0.99 µM | > 32 µM | > 32 µM | < 0.13 µM
COc1cc(C2=NCCN2)ccc1-n1cc(-c2cccc(C3=NCCN3)c2)nn1 |  |  |  |  |  |  | >80 µM | 3.81 µM | > 32 µM | > 32 µM | > 32 µM | > 32 µM | > 32 µM
CC1COC(Cn2cncn2)(c2ccc(Oc3ccc(Cl)cc3)cc2Cl)O1 (configuration not stated) [DIFENOCONAZOLE] |  | 85% |  |  |  |  |  | 26.2 µM | 44.7 µM | 0.01 µM | > 64 µM | 30.9 µM | 32.5 µM
CO[C@@H](C(=O)N1Cc2[nH]nc(NC(=O)c3ccc(N4CCN(C)CC4)cc3)c2C1)c1ccccc1 [DANUSERTIB] |  |  |  |  |  |  | 4.83 µM | 0.37 µM | 4.06 µM | 6.48 µM | 4 µM | 2.7 µM | 1.02 µM
O=C(NC1CC1)c1ccc(N2CCOc3ccc(Cl)cc32)s1 | 3.48 µM | 98% | > 10 µM | 1.03 µM |  | 18% |  |  |  |  |  |  | 
O=C(Nc1ccc2c(c1)B(O)OC2)c1ccccc1C(F)(F)F |  |  |  |  |  |  | 0.41 µM | 0.23 µM | 1.41 µM | 0.27 µM | 16 µM | > 32 µM | 0.15 µM
O=C(Nc1ccc(F)c(-c2nc3cc(-c4ccccc4)cnc3[nH]2)c1)N1CCCC1 |  |  |  |  |  |  |  | < 0.13 µM | 0.16 µM | < 0.13 µM | 16 µM | 0.4 µM | < 0.13 µM
